Measured values taken from paper PMC5820653, “Detection of a Peptide Biomarker by Engineered Yeast Receptors” (ACS Synthetic Biology, 2018).
Ends that are not written are not given here.

Columns and labels:
[1] = biological target: T1, Ste2p mutant receptor Cys1H4 (M54I) (Saccharomyces cerevisiae, UniProt D6VTK4, M54I); assay: cell-based; assay type: cell-based
T1 construct: expressed in transfected cells; host or cells: S. cerevisiae yJB013 (ste2-deleted reporter strain), p416GPD plasmid
Experimental: (§1) Yeast were grown overnight at 30 °C and 225 rpm in 250 mL Erlenmeyer flasks and then diluted to an OD600 = 0.1 in the appropriate medium, typically CSM-Ura or SDCAA-Ura, or commercially sourced pooled human urine. Immediately after dilution, the peptide ligand was added. The culture was incubated for 2.5 h at 30 °C with 225 rpm shaking. Cells were centrifuged at 2000g for 5 min and supernatant was removed. Cells were resuspended in 1x PBS in preparation for flow cytometry.
(§2) Analytical flow cytometry was performed with the BD LSR II (BD Biosciences, San Jose, USA); yEGFP was read on the Alexa-Flour 488 channel, and mKate was read on the PE-Texas Red channel. Receptor output was measured by dividing the mean GFP fluorescence by the mean RFP fluorescence for a population. EC50 values were calculated by fitting the receptor output to a four-parameter logistic curve, and determining which ligand concentration produced an output equivalent to half of the receptor’s maximum output.
(§3) The dose response curves were modeled to fit the following four-parameter logistic curve: [drawing 2] where a is the minimum value, b is the maximum value, c is the EC50, and d is the hill coefficient. The fluorescent receptor output, y, to a given concentration x of ligand, was determined by the following equation: [drawing 3] where GFP is downstream of the receptor pathway and mKate is constitutively expressed (see Strain and Plasmid Construction, Methods Section).
(§4) Data were fit to the Michaelis–Menten equation: [drawing 4] where the fluorescent receptor output, y, to a given concentration x of ligand, was determined by the following equation: [drawing 5] where GFP is downstream of the receptor pathway and mKate is constitutively expressed (see Strain and Plasmid Construction, Methods Section).

[2] = biological target: T2, Ste2p mutant receptor Cys1H5 (M54I, C59S) (Saccharomyces cerevisiae, UniProt D6VTK4, C59S/M54I); assay: cell-based; assay type: cell-based
T2 construct: expressed in transfected cells; host or cells: S. cerevisiae yJB013 (ste2-deleted reporter strain), p416GPD plasmid
T2 sequence (D6VTK4 whole entry M54I/C59S): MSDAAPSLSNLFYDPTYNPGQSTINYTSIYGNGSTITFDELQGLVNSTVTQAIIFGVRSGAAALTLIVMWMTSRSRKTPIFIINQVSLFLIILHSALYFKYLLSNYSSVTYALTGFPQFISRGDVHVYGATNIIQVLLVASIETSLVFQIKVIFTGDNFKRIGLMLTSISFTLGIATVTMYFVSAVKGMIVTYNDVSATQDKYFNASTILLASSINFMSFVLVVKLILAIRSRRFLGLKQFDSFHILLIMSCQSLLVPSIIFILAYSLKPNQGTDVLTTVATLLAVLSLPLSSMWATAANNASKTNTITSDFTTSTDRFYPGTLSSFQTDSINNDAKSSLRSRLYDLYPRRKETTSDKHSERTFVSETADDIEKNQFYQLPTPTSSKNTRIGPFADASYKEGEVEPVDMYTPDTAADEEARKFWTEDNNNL
Experimental: as §1, §2, §3, §4

[3] = biological target: T3, Ste2p mutant receptor Cys5R9 (Saccharomyces cerevisiae, UniProt D6VTK4, K225T/L228F/M218T/M54I/N158F/R74K/S121R/T167R/Y26F); assay: cell-based
T3 construct: expressed in transfected cells; host or cells: S. cerevisiae yJB013 (ste2-deleted reporter strain), p416GPD plasmid
T3 sequence (D6VTK4 1-319 Y26F/M54I/R74K/S121R/N158F/T167R/M218T/K225T/L228F): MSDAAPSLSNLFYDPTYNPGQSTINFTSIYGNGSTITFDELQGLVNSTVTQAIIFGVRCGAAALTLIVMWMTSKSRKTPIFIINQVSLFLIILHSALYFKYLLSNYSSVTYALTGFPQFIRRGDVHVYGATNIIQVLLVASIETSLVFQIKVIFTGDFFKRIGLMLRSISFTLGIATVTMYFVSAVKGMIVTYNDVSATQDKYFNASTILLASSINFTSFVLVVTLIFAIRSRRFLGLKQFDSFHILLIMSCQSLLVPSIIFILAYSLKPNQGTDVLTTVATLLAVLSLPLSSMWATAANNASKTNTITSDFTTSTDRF
Experimental: as §1, §2, §3, §4

[4] = biological target: T4, Ste2p mutant receptor Cys4L3 (Saccharomyces cerevisiae, UniProt D6VTK4, K225T/M218T/M54I/N158F/R74K/T167R/Y26F); assay: cell-based
T4 construct: expressed in transfected cells; host or cells: S. cerevisiae yJB013 (ste2-deleted reporter strain), p416GPD plasmid
T4 sequence (D6VTK4 1-319 Y26F/M54I/R74K/N158F/T167R/M218T/K225T): as the sequence (D6VTK4 1-319 Y26F/M54I/R74K/S121R/N158F/T167R/M218T/K225T/L228F) above, with R121S, F228L counted along it
Experimental: as §1, §2, §3, §4

[5] = biological target: T5, Ste2p mutant receptor Cys2K3 (Saccharomyces cerevisiae, UniProt D6VTK4, K225T/M218T/M54I/N158Y/S356T); assay: cell-based
T5 construct: expressed in transfected cells; host or cells: S. cerevisiae yJB013 (ste2-deleted reporter strain), p416GPD plasmid
T5 sequence (D6VTK4 whole entry M54I/N158Y/M218T/K225T/S356T): as the sequence (D6VTK4 whole entry M54I/C59S) above, with S59C, N158Y, M218T, K225T, S356T counted along it
Experimental: as §1, §2, §3, §4

[6] = biological target: T6, Ste2p mutant receptor Cys5R7 (Saccharomyces cerevisiae, UniProt D6VTK4, D3N/K225T/L228F/M218T/M54I/N158Y); assay: cell-based
T6 construct: expressed in transfected cells; host or cells: S. cerevisiae yJB013 (ste2-deleted reporter strain), p416GPD plasmid
T6 sequence (D6VTK4 other isoform, or with tags, fused parts or gaps D3N/M54I/N158Y/M218T/K225T/L228F): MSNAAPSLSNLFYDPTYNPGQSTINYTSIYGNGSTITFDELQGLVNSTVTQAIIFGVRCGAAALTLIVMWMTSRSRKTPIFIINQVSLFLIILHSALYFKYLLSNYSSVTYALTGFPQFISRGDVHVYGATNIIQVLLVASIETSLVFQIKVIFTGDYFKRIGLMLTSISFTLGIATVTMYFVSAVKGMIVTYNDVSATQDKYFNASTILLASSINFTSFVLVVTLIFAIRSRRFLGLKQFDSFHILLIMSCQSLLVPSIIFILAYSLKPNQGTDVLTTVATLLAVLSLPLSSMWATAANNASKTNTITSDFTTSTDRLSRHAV
Experimental: as §1, §2, §3, §4

[7] = biological target: T7, Ste2p mutant receptor Cys2K2 (Saccharomyces cerevisiae, UniProt D6VTK4, M218K/M54I/Q272Y); assay: cell-based
T7 construct: expressed in transfected cells; host or cells: S. cerevisiae yJB013 (ste2-deleted reporter strain), p416GPD plasmid
T7 sequence (D6VTK4 whole entry M54I/M218K/Q272Y): as the sequence (D6VTK4 whole entry M54I/C59S) above, with S59C, M218K, Q272Y counted along it
Experimental: as §1, §2, §3, §4

[8] = biological target: T8, Ste2p mutant receptor Cys5R2 (Saccharomyces cerevisiae, UniProt D6VTK4, F55L/K225T/M218T/M54I/N158Y/R74K/Y26F); assay: cell-based
T8 construct: expressed in transfected cells; host or cells: S. cerevisiae yJB013 (ste2-deleted reporter strain), p416GPD plasmid
T8 sequence (D6VTK4 1-319 Y26F/M54I/F55L/R74K/N158Y/M218T/K225T): as the sequence (D6VTK4 1-319 Y26F/M54I/R74K/S121R/N158F/T167R/M218T/K225T/L228F) above, with F55L, R121S, F158Y, R167T, F228L counted along it
Experimental: as §1, §2, §3, §4

[9] = system: Round 3 Ste2p mutant receptors; assay: Counter-sorting for specificity: round 3 Ste2p mutants evolved for Variant 56; assay type: cell-based, Saccharomyces cerevisiae; settings: library sorted with 100 nM Variant 56, counter-sorted against 100 nM α-factor; Supplementary Figure 1
Experimental: Specificity can be evolved
Supplementary Figure 1- Receptors can be counter-sorted against alpha-factor to increase specificity towards the target ligand- Variant […]
Variant 56 (sequence: […]), which contains a single-amino acid substitution compared to α-factor. In round 1, error prone PCR was performed on Ste2p to create a library of mutant receptors that were subjected to sorting with 100 nM Variant 56. The best mutant isolated from this sort was re-mutagenized to create a new library. The new library was sorted in round 2 with 100 nM Variant 56, and did show an improvement in detecting Variant 56 (panel a). In round 3, the sorted library from round 2 was screened […]
(also on this page, place not known: 0 1 2 3 4 Ste2p 1 2 Fold Increase Over Inac ve Receptor (GFP/RFP) Var. 56 0 1 2 3 4 Ste2p 1 2 3* Fold Increase Over Inac ve Receptor (GFP/RFP) α-factor 0.0 0.2 0.4 0.6 0.8 1.0 Ste2p 1 2 3* Rela ve Ac va on (Var. 56/α-factor) Rounds of Mutagenesis & Screening (a) (c) (b)) […]
(1 picture or pasted object on this page, not shown here)

[10] = biological target: T8, Ste2p mutant receptor Cys5R2; assay: Receptor Cys5R2 response in trypsinized pooled human urine; assay type: cell-based; settings: 500 μM ligand; pooled human urine digested with trypsin (50% Tryp-LE, 37 °C overnight, boiled); n = 3
Experimental: as §1, §2
(§5) When trypsinized urine was used as the sample matrix, urine was mixed with Tryp-LE Express (Life Technologies, Grand Island, USA) to a final concentration of 50%. Mixtures were incubated at 37 °C overnight. Trypsin was inactivated by boiling the samples at 99 °C for 10 min. Samples were stored at −80 °C until assayed.

[11] = biological target: T6, Ste2p mutant receptor Cys5R7; assay: Receptor Cys5R7 response in trypsinized pooled human urine; assay type: cell-based; settings: 500 μM ligand; pooled human urine digested with trypsin (50% Tryp-LE, 37 °C overnight, boiled); n = 3
Experimental: as §1, §2, §5

Ste2p (wild type) = biological target: T9, Ste2p (wild type) (Saccharomyces cerevisiae, UniProt D6VTK4); assay: Yeast GFP/RFP reporter response of native receptor Ste2p to peptide ligand (flow cytometry); assay type: cell-based
T9 construct: expressed in transfected cells; host or cells: S. cerevisiae YJB015 (MPY578t5 ste2::LEU2, fus1::yeGFP, TRP1::mKate) carrying plasmid pJB036
T9 sequence (D6VTK4 1-431): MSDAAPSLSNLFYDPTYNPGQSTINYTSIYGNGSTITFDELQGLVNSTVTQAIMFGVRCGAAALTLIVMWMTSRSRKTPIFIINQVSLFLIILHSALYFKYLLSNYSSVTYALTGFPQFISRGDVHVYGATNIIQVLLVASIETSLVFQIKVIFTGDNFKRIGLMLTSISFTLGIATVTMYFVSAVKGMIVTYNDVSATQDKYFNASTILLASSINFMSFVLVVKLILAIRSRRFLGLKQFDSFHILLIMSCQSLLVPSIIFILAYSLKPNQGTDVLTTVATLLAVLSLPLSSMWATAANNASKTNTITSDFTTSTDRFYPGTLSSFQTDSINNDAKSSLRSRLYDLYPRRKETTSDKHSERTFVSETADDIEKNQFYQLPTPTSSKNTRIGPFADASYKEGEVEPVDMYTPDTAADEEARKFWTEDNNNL
Experimental: as §1
as §2, with “output. […]” for “output.”
as §4

[12] = biological target: T3, Ste2p mutant receptor Cys5R9; assay: Receptor Cys5R9 response in trypsinized pooled human urine; assay type: cell-based; settings: 500 μM ligand; pooled human urine digested with trypsin (50% Tryp-LE, 37 °C overnight, boiled); n = 3
Experimental: as §1, §2, §5

[13] = biological target: T4, Ste2p mutant receptor Cys4L3; assay: Receptor Cys4L3 response in trypsinized pooled human urine; assay type: cell-based; settings: 500 μM ligand; pooled human urine digested with trypsin (50% Tryp-LE, 37 °C overnight, boiled); n = 3
Experimental: as §1, §2, §5

T1 sequence (D6VTK4 whole entry M54I): as the sequence (D6VTK4 whole entry M54I/C59S) above, with S59C counted along it

Compound | EC50 [1] | EC50 [2] | EC50 [4] | EC50 [5] | EC50 [6] | EC50 [7] | EC50 [8] | further results
ALDFAVGEPMK-NH2 [Cys5 amidated] | 158000 nM | 234000 nM | 3470 nM | 6170 nM | 2690 nM | 81300 nM | 4900 nM | EC50 [3]: 3470 nM
WHYLQLKPGQPMY [Variant 56, α-factor variant with a single-amino acid substitution] |  |  |  |  |  |  |  | Activation of round 3 mutants (fold increase GFP/RFP; relative activation Var. 56/α-factor) [9]: preferentially activated
ALALKPGEPMY [Cys2] |  |  |  | 117 nM |  | 316 nM |  | 
HALALKPGEPMY [Cys1] | 141 nM | 129 nM |  |  |  |  |  | 
ALDFAVGEYNK-NH2 [Cys7 amidated, C-terminally amidated cystatin C tryptic peptide Cys7] |  |  |  |  |  |  |  | Detection of ligand in pooled human urine [10]: able to detect; Detection of ligand in pooled human urine [11]: able to detect; Ligand concentration at which the receptor responds (sensitivity) (Ste2p (wild type); as stated in text / figure legend): 1 mM; Ligand concentration at which the receptor responds (sensitivity) ([1]; Supplementary Figure 3C legend): 1 mM; Ligand concentration at which the receptor responds (sensitivity) ([2]; Supplementary Figure 3C legend): 1 mM; Ligand concentration at which the receptor responds (sensitivity) [3]: 500 µM; Ligand concentration at which the receptor responds (sensitivity) ([4]; Cys4 value with a new stock of Cys4 peptide): 100 µM; Ligand concentration at which the receptor responds (sensitivity) [6]: 50 µM; Improvement in sensitivity ([6]; receptor Cys5R7 versus Ste2p, same ligand): 20 fold; Ligand concentration at which the receptor responds (sensitivity) [8]: 100 µM; Detection of ligand in pooled human urine [12]: able to detect; Detection of ligand in pooled human urine [13]: able to detect
CSCC[C@H](NC(=O)[C@@H]1CCCN1C(=O)[C@H](CCC(N)=O)NC(=O)CNC(=O)[C@@H]1CCCN1C(=O)[C@H](CCCCN)NC(=O)[C@H](CC(C)C)NC(=O)[C@H](CCC(N)=O)NC(=O)[C@H](CC(C)C)NC(=O)[C@H](Cc1c[nH]c2ccccc12)NC(=O)[C@H](Cc1c[nH]cn1)NC(=O)[C@@H](N)Cc1c[nH]c2ccccc12)C(=O)N[C@@H](Cc1ccc(O)cc1)C(N)=O [α-factor amidated, reference compound] | 50.1 nM | 58.9 nM | 6.76 nM | 58.9 nM | 6.31 nM | 70.8 nM | 9.12 nM | EC50 (Ste2p (wild type); log10 of EC50 in M ± error, 4-parameter logistic fit of GFP/RFP output, 2.5 h, 30 °C, flow cytometry, Supplementary Table 1): 229 nM
